Results reported in article PMC12608155, “Discovery of Potential Antileishmanial Compounds Through Phenotypic Screening of an Alkaloid Library” (Molecules, 2025).
Like-named read-outs stand apart in the source and are kept apart here.

Test system: L. donovani IRFP axenic amastigotes
Assay: Primary single-concentration screening on axenic amastigotes, growth inhibition at 72 h
Assay type: cell-based, Leishmania donovani
Conditions: axenic amastigotes; for inhibition at 1 µM / inhibition at 10 µM: Leishmania donovani; for inhibition at 1 µM / Growth Inhibition (%) at 72h, 1 µM_Exp1 / Growth Inhibition (%) at 72h, 1 µM_Exp2: 1 µM; for inhibition at 10 µM / Growth Inhibition (%) at 72h, 10 µM_Exp1 / Growth Inhibition (%) at 72h, 10 µM_Exp2: 10 µM
[1] = experiment 1, 72 h, read-out: Growth Inhibition (%) at 72h, 1 µM_Exp1
[2] = experiment 2, 72 h, read-out: Growth Inhibition (%) at 72h, 1 µM_Exp2
[3] = experiment 1, 72 h, read-out: Growth Inhibition (%) at 72h, 10 µM_Exp1
[4] = experiment 2, 72 h, read-out: Growth Inhibition (%) at 72h, 10 µM_Exp2

Compound | inhibition at 1 µM [1] [%] | inhibition at 1 µM [2] [%] | inhibition at 10 µM [3] [%] | inhibition at 10 µM [4] [%] | Growth Inhibition (%) at 72h, 1 µM_Exp1 (experiment 1, 72 h) [%] | Growth Inhibition (%) at 72h, 1 µM_Exp2 (experiment 2, 72 h) [%] | Growth Inhibition (%) at 72h, 10 µM_Exp1 (experiment 1, 72 h) [%] | Growth Inhibition (%) at 72h, 10 µM_Exp2 (experiment 2, 72 h) [%]
O=C1c2ccccc2-n2c1nc1ccccc1c2=O [Tryptanthrin] | 13.1 | 23.4 | 84.1 | 75 | – | – | – | –
CN1c2ccccc2C(=O)N2CCc3c([nH]c4ccccc34)[C@@H]21 (racemic) [(±)-Evodiamine] | – | – | – | – | 64.72 | 40.81 | 100.52 | 97.39
CC[C@]12C=CCN3CC[C@]4(C(=C(C(=O)OC)C1)Nc1ccccc14)[C@@H]32 [Tabersonine] | -26.2 | -7.79 | 98 | 61.5 | – | – | – | –
CCCCCCCCCCCCCc1cc(=O)c2ccccc2n1C [Dihydroevocarpine] | – | – | – | – | -21.58 | 19.18 | 97.61 | 83.00
O=C(O)CNCC(=O)O [Iminodiacetic acid] | -16.6 | -73 | -16.9 | 79.9 | – | – | – | –
c1ccc2c(Cc3c[nH]c4ccccc34)c[nH]c2c1 [3,3'-Diindolylmethane] | -59.5 | -44.6 | 100 | 95.7 | – | – | – | –
COc1ccc2cc3[n+](cc2c1OC)CCc1cc2c(cc1-3)OCO2.[Cl-] [Berberine (chloride)] | – | – | – | – | 16.68 | 6.56 | 99.29 | 97.39
CCc1ccc(O)c2cc3c(nc12)-c1cc2c(c(=O)n1C3)COC(=O)[C@]2(O)CC [12-Ethyl-9-hydroxycamptothecin] | – | – | – | – | 22.17 | 56.54 | 70.30 | 62.49
C[C@H]1CC[C@]2(NC1)O[C@H]1C[C@H]3[C@@H]4CC[C@H]5C[C@@H](O)CC[C@]5(C)[C@H]4CC[C@]3(C)[C@H]1[C@@H]2C [Tomatidine] | 11.2 | 18.6 | 66.9 | 75.1 | – | – | – | –
COc1c2ccoc2nc2c(O)cccc12 [Robustine] | 48.3 | 1.86 | 90.6 | 33.3 | – | – | – | –
COc1ccc2cc3[n+](cc2c1OC)CCc1cc2c(cc1-3)OCO2.O=S(=O)([O-])O [Berberine (sulfate)] | – | – | – | – | 19.57 | -24.39 | 70.74 | 94.59
Evocarpine | – | – | – | – | -18.62 | -35.10 | 100.35 | 98.71
COC(=O)C[C@](O)(CCCC(C)(C)O)C(=O)O[C@@H]1C(OC)=C[C@]23CCCN2CCc2cc4c(cc2[C@H]13)OCO4 [Homoharringtonine] | 4.68 | -119 | 89.9 | 91.5 | – | – | – | –
CC(C)(O)[C@H]1O[C@H]2CC[C@@]3(C)[C@@](O)(CC[C@H]4Cc5c([nH]c6ccccc56)[C@@]43C)C2=CC1=O [Paxilline] | 6.12 | 19.6 | 98.6 | 99.1 | – | – | – | –
Br.CN1[C@H]2C[C@H](OC(=O)[C@H](CO)c3ccccc3)C[C@@H]1[C@@H](O)C2 [Anisodamine (hydrobromide)] | – | – | – | – | -15.73 | 4.55 | 80.63 | 11.58
CC[C@@]1(O)C(=O)OCc2c1cc1n(c2=O)Cc2cc3cc(OC)ccc3nc2-1 [10-Methoxycamptothecin] | – | – | – | – | 73.40 | 85.61 | 97.42 | 93.76
Br.O=C(CC1NCCCC1O)Cn1cnc2cc(Br)c(Cl)cc2c1=O (stereo not drawn) [Halofuginone (hydrobromide)] | – | – | – | – | 99.34 | 83.65 | 100.16 | 98.51
CC/C=C\C/C=C\C/C=C\CCCCCCCC(=O)NCc1ccccc1 [N-Benzyllinolenamide] | – | – | – | – | -37.93 | -43.83 | 99.95 | 100.85
COc1cc(/C=C/C(=O)N2CCC=CC2=O)cc(OC)c1OC [Piperlongumine] | – | – | – | – | 99.95 | 98.63 | 100.21 | 100.05
O=C(O)CCCc1c[nH]c2ccccc12 [Indole-3-butyric acid] | -6.27 | 14.8 | 70.2 | 84 | – | – | – | –
O=C1N[C@@H]2C(=C[C@H](O)[C@@H](O)[C@H]2O)c2cc3c(c(O)c21)OCO3 [Narciclasine] | – | – | – | – | -12.26 | -86.55 | 84.56 | 93.45
